Values quoted from earlier work, collected in US20140303128A1, “TRANSMUCOSAL HORMONE DELIVERY SYSTEM” (priority 2013, published 2014).

Experiments:
[1] = smoking a cigarette (WO 03/055486 A1)
[2] = pH 6.8

CN1CCCC1c1cccnc1 (centres unmarked) [nicotine]
time to peak of plasma nicotine levels [1]: about 10 minutes
nicotine in the free base form [2]: about 10%
